Assay results reported in paper PMC12462901 (Journal of the American Chemical Society, 2025).
Where two headings read alike, the source gives them in different places.

Columns and labels:
[1] = tested on: HeLa human cervical carcinoma cells (CCL-2); test: cellular potency in HeLa cells; assay type: cell-based; conditions: read-out: IC50 value (cellular potency)
logD = assay type: physicochemical; conditions: relative to parent atuveciclib
kinetic solubility = assay type: physicochemical; conditions: compared to atuveciclib
[2] = tested on: Madin-Darby canine kidney (MDCK) cells; test: permeability in MDCK cells; assay type: in vitro ADME; conditions: compared to the parent compound

| Compound | IC50 ([1]; Homo sapiens, HeLa) | logD (logD) | kinetic solubility (kinetic solubility) | permeability [2] | IC50 ([1]; HeLa human cervical carcinoma cells (CCL-2)) |
| --- | --- | --- | --- | --- | --- |
| COc1cc(F)ccc1-c1ncnc(Nc2cccc(C[S@](C)(=N)=O)c2)n1 [atuveciclib, reference compound] | 300 nM |  |  |  |  |
| COc1cc(F)ccc1-c1ncnc(Nc2cccc(C[S@@](C)(=O)=NC3CCC3)c2)n1 [Compound 57] |  | increase in logD | notable improvement compared to atuveciclib | enhanced permeability compared to the parent compound | 700 nM |
